Results taken from paper PMC9611727, “Optimization of a Novel Mandelamide-Derived Pyrrolopyrimidine Series of PERK Inhibitors” (Pharmaceutics, 2022).

Assays:
FLT3 = target: T1, FLT3 (Homo sapiens, UniProt P36888); assay: scanMAX kinase panel; format: binding; parameters: purchased DiscoverX scanMAX; conditions: read-out: % Control; for remaining binding at 1 µM: 1000 nM
T1 sequence (P36888 27-993): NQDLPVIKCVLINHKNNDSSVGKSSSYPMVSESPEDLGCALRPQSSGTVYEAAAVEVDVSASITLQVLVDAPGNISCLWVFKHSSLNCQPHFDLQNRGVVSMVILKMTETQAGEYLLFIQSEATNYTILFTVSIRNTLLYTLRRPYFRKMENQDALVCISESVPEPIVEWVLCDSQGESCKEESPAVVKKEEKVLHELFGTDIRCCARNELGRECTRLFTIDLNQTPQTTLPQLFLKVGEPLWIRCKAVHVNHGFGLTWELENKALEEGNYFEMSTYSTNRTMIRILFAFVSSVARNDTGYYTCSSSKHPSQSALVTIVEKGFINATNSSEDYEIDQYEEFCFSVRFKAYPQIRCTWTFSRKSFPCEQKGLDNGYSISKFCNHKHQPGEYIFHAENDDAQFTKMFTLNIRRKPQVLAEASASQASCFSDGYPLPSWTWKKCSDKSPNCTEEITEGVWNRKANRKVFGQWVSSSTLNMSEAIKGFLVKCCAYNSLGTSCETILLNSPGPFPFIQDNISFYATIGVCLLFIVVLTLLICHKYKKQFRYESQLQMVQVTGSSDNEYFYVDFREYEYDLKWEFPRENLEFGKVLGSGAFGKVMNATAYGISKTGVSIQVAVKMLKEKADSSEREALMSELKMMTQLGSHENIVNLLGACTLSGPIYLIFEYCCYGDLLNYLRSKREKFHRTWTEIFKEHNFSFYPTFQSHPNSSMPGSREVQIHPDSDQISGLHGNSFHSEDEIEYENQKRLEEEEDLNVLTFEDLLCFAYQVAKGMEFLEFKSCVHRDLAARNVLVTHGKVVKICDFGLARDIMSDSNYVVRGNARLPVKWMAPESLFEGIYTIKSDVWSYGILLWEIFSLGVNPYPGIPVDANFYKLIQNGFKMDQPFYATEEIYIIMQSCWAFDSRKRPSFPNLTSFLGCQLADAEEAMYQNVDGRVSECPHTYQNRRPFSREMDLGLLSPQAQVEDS
Text: (§1) Supplemental Table S2. scanMAXSM Kinome Assay Results. Complete tabulated data of all 468 kinases from the panel, including
(§2) 403 wild-type and 65 mutant isoforms. […] Cmpd 11 and Cmpd 24

EIF2AK1 = target: T2, EIF2AK1 (Homo sapiens, UniProt Q9BQI3); assay: scanMAX kinase panel; format: binding; conditions: read-out: % Control; for remaining binding at 1 µM: 1000 nM
T2 construct: purchased DiscoverX scanMAX
Text: as §1, §2

TESK1 = target: T3, TESK1 (Homo sapiens, UniProt Q15569); assay: scanMAX kinase panel; format: binding; conditions: read-out: % Control; for remaining binding at 1 µM: 1000 nM
T3 construct: purchased DiscoverX (scanMAX panel)
Text: as §1, §2

DDR1 = target: T4, DDR1 (Homo sapiens, UniProt Q08345); assay: scanMAX kinase panel; format: binding; conditions: read-out: % Control; for remaining binding at 1 µM: 1000 nM
T4 construct: purchased DiscoverX scanMAX
Text: as §1, §2

TRKB = target: T5, TRKB (Homo sapiens, UniProt Q16620); assay: scanMAX kinase panel; format: binding; conditions: read-out: % Control; for remaining binding at 1 µM: 1000 nM
T5 construct: purchased DiscoverX (scanMAX panel)
Text: as §1, §2

MKNK2 = target: T6, MKNK2 (Homo sapiens, UniProt Q9HBH9); assay: scanMAX kinase panel; format: binding; conditions: read-out: % Control; for remaining binding at 1 µM: 1000 nM
T6 construct: purchased DiscoverX scanMAX
Text: as §1, §2

KIT(L576P) = target: T7, KIT(L576P) (Homo sapiens, UniProt P10721, L576P); assay: scanMAX kinase panel; format: binding; conditions: read-out: % Control; for remaining binding at 1 µM: 1000 nM
T7 construct: purchased DiscoverX scanMAX
Text: as §1, §2

BLK = target: T8, BLK (Homo sapiens, UniProt P51451); assay: scanMAX kinase panel; format: binding; conditions: read-out: % Control; for remaining binding at 1 µM: 1000 nM
T8 construct: purchased DiscoverX scanMAX
Text: as §1, §2

RIPK5 = target: T9, RIPK5 (Homo sapiens, UniProt Q6XUX3); assay: scanMAX kinase panel; format: binding; conditions: read-out: % Control; for remaining binding at 1 µM: 1000 nM
T9 construct: purchased DiscoverX (scanMAX panel)
T9 sequence (Q6XUX3 1-929): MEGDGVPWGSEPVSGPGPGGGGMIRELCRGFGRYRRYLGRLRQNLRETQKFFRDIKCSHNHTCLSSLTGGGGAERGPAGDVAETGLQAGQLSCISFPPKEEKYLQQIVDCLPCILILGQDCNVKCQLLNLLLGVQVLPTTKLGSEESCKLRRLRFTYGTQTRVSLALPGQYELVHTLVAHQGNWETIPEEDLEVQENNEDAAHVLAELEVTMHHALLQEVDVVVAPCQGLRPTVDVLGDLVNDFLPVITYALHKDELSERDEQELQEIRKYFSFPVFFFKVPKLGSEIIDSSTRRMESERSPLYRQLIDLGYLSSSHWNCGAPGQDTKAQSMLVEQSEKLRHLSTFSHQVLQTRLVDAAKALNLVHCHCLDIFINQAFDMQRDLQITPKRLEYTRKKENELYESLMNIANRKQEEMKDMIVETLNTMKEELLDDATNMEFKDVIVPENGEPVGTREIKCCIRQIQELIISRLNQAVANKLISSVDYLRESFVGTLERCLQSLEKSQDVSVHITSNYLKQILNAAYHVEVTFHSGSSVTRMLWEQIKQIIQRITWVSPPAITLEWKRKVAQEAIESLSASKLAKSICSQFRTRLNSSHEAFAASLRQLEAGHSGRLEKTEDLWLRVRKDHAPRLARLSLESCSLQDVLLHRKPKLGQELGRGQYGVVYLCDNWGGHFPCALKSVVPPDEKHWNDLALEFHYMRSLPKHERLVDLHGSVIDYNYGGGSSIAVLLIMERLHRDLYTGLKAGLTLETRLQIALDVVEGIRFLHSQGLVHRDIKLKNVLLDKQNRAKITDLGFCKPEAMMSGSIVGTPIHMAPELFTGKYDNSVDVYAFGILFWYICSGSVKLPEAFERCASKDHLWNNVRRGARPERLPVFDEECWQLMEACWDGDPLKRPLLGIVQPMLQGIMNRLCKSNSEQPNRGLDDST
Text: as §1, §2

TIE2 = target: T10, TIE2 (Homo sapiens, UniProt Q02763); assay: scanMAX kinase panel; format: binding; conditions: read-out: % Control; for remaining binding at 1 µM: 1000 nM
T10 construct: purchased DiscoverX (scanMAX panel)
Text: as §1, §2

CDK11 = target: T11, CDK11 (Homo sapiens, UniProt Q9BWU1); assay: scanMAX kinase panel; format: binding; conditions: read-out: % Control; for remaining binding at 1 µM: 1000 nM
T11 construct: purchased DiscoverX scanMAX
Text: as §1, §2

786-O RCC xenografts = assay: 786-O ccRCC tumor xenograft study; format: in vivo; conditions: for tolerability by body weight measurement / tumor growth inhibition: 30 mg/kg BID oral, 29 days
Procedure: In vivo studies of the effect of pyrrolopyrimidines on 786-O xenograft inhibition follow a method published elsewhere. Female BALB/c nude mice were inoculated subcutaneously with 786-O tumor cells (5 × 10^6) in 0.1 mL of PBS. Animals were randomized when tumors reached 100–200 mm^3 into treatment groups. […] Tumor volumes were measured by caliper and the volume was expressed in mm^3 using the formula: V = (L × W × W)/2, where V, L, and W represent tumor volume, length, and width, respectively. All studies were conducted following an IACUC-approved protocol (AN-1903-05-1798). Experimental data management and reporting were in accordance with applicable Crown Bioscience’s Guidelines and Standard Operating Procedures.

T3 sequence (Q15569 whole entry): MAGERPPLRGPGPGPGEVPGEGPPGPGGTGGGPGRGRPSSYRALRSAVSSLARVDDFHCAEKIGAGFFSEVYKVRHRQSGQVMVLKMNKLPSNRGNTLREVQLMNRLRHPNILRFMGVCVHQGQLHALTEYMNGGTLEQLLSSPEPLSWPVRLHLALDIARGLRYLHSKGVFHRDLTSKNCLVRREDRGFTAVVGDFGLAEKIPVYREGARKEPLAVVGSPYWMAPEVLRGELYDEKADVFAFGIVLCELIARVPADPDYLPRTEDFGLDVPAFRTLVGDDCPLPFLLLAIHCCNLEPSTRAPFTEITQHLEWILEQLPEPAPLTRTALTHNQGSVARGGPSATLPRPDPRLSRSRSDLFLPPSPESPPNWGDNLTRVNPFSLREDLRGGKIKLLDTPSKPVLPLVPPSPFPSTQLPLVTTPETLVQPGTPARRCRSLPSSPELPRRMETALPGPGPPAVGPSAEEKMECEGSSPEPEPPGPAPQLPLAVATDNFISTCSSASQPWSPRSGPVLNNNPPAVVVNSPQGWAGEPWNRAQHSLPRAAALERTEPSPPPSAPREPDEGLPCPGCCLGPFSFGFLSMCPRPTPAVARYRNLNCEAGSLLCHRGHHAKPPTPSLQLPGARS
T5 sequence (Q16620 32-822): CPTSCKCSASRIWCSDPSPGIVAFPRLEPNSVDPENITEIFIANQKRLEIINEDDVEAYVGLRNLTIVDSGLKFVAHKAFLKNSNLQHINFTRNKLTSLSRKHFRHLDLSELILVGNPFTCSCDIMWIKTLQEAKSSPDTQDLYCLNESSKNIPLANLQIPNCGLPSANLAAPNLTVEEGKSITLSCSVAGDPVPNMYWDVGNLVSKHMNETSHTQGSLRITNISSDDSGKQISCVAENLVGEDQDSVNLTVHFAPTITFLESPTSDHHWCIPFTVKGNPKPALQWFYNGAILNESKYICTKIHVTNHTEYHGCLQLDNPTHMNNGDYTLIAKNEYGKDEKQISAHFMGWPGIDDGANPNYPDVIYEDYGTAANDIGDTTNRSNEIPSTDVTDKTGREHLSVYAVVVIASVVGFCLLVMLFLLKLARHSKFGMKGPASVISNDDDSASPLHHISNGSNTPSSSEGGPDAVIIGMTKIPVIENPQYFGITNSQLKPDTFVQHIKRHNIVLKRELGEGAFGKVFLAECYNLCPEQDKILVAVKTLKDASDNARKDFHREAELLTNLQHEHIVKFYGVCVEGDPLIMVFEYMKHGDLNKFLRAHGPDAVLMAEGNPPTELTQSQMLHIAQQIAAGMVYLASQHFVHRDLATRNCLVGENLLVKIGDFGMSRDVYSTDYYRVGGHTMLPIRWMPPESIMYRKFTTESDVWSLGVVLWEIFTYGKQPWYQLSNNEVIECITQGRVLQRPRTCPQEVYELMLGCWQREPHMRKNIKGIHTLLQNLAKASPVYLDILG
T8 sequence (P51451 whole entry): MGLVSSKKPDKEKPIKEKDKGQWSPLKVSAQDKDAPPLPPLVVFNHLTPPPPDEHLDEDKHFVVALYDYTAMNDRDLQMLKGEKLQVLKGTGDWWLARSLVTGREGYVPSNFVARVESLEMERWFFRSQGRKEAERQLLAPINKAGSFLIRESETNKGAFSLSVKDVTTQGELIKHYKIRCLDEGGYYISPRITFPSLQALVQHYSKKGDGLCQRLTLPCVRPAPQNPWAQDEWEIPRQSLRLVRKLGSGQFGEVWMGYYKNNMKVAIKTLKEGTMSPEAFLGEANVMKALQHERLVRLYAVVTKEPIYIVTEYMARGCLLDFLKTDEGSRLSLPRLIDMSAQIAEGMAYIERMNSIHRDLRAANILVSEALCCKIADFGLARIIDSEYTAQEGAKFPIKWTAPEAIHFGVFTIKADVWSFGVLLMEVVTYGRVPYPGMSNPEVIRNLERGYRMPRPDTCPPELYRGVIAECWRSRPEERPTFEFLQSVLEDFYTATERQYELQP
T10 sequence (Q02763 23-1124): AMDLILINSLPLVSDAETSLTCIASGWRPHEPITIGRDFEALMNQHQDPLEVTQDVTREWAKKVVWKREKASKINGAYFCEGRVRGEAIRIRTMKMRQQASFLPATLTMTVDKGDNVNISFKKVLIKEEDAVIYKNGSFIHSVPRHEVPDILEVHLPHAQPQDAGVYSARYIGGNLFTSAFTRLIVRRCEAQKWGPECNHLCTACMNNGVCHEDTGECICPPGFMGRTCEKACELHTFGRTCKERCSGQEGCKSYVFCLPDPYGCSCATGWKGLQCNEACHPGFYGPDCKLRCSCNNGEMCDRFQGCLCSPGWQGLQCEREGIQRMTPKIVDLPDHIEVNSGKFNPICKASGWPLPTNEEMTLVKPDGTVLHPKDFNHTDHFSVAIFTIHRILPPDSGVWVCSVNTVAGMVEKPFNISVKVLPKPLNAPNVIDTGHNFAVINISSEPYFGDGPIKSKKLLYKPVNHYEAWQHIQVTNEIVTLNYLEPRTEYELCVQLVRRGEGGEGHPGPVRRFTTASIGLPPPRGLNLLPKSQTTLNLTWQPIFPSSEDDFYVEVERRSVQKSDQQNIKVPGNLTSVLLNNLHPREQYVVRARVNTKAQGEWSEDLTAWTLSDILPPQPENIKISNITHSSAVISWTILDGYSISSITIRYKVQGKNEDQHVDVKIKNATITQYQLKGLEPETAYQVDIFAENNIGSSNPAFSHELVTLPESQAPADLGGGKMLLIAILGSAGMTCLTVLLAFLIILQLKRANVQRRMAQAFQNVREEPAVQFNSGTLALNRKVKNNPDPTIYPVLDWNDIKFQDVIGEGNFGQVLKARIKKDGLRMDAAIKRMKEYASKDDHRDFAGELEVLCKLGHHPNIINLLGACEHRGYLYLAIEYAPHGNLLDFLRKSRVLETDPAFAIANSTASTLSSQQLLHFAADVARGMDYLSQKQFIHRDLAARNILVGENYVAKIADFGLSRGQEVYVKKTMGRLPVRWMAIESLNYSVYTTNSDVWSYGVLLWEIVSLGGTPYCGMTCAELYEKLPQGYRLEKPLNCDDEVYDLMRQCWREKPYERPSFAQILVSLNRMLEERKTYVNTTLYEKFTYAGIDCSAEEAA
T4 sequence (Q08345 19-913): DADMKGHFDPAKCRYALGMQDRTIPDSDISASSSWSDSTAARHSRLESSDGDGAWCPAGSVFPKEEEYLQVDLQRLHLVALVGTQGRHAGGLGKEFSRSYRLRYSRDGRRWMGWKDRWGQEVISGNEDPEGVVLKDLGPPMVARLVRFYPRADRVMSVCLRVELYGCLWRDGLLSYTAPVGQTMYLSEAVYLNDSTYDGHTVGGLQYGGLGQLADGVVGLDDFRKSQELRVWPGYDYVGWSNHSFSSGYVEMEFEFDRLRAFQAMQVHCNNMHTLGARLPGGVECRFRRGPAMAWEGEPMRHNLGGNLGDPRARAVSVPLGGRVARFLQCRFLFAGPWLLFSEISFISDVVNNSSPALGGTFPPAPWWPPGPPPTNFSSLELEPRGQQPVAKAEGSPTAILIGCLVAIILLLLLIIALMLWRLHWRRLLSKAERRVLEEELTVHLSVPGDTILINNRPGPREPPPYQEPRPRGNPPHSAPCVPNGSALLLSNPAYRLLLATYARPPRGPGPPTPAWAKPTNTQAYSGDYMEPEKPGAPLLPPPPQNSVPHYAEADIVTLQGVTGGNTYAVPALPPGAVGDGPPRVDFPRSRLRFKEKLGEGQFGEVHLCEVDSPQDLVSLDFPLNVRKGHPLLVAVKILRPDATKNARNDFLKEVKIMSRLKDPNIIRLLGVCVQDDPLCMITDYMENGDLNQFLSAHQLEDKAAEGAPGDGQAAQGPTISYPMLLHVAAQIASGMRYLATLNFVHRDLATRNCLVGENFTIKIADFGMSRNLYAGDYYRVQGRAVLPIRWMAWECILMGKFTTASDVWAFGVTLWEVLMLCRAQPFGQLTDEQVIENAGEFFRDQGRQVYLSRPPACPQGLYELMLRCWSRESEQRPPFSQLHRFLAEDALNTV
T6 sequence (Q9HBH9 whole entry): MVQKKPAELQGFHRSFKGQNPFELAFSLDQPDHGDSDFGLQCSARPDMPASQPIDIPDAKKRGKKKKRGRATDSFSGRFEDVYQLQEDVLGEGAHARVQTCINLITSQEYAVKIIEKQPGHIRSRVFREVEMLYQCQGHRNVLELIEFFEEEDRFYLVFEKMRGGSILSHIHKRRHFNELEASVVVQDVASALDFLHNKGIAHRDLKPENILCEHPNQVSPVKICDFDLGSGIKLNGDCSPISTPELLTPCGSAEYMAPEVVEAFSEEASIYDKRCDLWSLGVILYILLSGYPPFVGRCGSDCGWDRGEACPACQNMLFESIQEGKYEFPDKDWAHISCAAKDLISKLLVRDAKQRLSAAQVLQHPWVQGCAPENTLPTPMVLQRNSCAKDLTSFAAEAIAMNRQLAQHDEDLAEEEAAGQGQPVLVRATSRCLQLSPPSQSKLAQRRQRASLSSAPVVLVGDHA
T2 sequence (Q9BQI3 whole entry): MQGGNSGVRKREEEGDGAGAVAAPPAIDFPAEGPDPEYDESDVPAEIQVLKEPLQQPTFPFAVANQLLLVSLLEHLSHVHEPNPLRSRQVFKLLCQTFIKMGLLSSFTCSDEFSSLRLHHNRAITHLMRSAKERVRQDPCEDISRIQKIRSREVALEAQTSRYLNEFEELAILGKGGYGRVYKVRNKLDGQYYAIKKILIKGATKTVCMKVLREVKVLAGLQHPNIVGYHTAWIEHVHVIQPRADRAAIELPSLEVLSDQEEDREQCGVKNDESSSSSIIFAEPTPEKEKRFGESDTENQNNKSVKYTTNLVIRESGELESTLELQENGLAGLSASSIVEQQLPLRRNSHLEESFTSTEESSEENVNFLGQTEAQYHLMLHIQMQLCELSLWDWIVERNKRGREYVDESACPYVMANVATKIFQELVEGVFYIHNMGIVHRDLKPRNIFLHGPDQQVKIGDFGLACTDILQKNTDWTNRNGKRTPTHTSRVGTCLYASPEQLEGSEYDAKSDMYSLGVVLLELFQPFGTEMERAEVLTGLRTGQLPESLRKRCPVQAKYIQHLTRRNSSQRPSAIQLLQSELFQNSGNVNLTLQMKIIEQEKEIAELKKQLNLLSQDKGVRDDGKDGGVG

| Structure (SMILES) | remaining binding at 1 µM (FLT3) | remaining binding at 1 µM (EIF2AK1) | remaining binding at 1 µM (TESK1) | remaining binding at 1 µM (DDR1) | remaining binding at 1 µM (TRKB) | remaining binding at 1 µM (MKNK2) | remaining binding at 1 µM (KIT(L576P)) | remaining binding at 1 µM (BLK) | remaining binding at 1 µM (RIPK5) | remaining binding at 1 µM (TIE2) | remaining binding at 1 µM (CDK11) | tolerability by body weight measurement (786-O RCC xenografts) | tumor growth inhibition (786-O RCC xenografts) | also measured |
| --- | --- | --- | --- | --- | --- | --- | --- | --- | --- | --- | --- | --- | --- | --- |
| Cc1cc(NC(=O)[C@H](O)c2cccc(F)c2)ccc1-c1cn(C)c2ncnc(N)c12 [Compound 11, (R)-N-(4-(4-amino-7-methyl-7H-pyrrolo[2,3-d]pyrimidin-5-yl)-3-methylphenyl)-2-(3-fluorophenyl)-2-hydroxy acetamide] | 4.3% | 49% | 15% | 72% | 22% | 1.2% | 36% | 19% | 3.4% | 14% | 1% | – | – | – |
| Cc1nc(N)c2c(-c3ccc(NC(=O)[C@H](O)c4cccc(F)c4)c(F)c3F)cn(C)c2n1 [Compound 70, (R)-N-(4-(4-amino-2,7-dimethyl-7H-pyrrolo[2,3-d]pyrimidin-5-yl)-2,3-difluorophenyl)-2-(3-fluorophenyl)-2-hydroxyacetamide] | – | – | – | – | – | – | – | – | – | – | – | well tolerated | significant tumor growth inhibition | – |
| Cc1nc(N)c2c(-c3ccc(NC(=O)[C@H](O)c4cccc(C(F)(F)F)c4)cc3C)cn(C)c2n1 [Compound 26] | 0% | 78% | 99% | 29% | 18% | 3.9% | 2.6% | 91% | 100% | 65% | 8.2% | well tolerated | significant tumor growth inhibition | effect on body weight (786-O RCC xenografts; 10 or 30 mg/kg, 28-day study period): No significant effects on body weght; tumor volume (786-O RCC xenografts; 10 or 30 mg/kg, 28 days): significantly decreased tumor volume; remaining binding at 0.1 µM (FLT3; 100 nM): 41%; remaining binding at 0.1 µM (EIF2AK1; 100 nM): 89%; remaining binding at 0.1 µM (TESK1; 100 nM): 97%; remaining binding at 0.1 µM (DDR1; 100 nM): 100%; remaining binding at 0.1 µM (TRKB; 100 nM): 92%; remaining binding at 0.1 µM (MKNK2; 100 nM): 88%; remaining binding at 0.1 µM (KIT(L576P); 100 nM): 85%; remaining binding at 0.1 µM (BLK; 100 nM): 100%; remaining binding at 0.1 µM (RIPK5; 100 nM): 100%; remaining binding at 0.1 µM (TIE2; 100 nM): 100%; remaining binding at 0.1 µM (CDK11; 100 nM): 89% |
| Cc1nc(N)c2c(-c3ccc(NC(=O)[C@H](O)c4cccc(F)c4)cc3C)cn(C)c2n1 [Compound 24] | 66% | 73% | 100% | 100% | 96% | 58% | 98% | 100% | 100% | 100% | 89% | well tolerated | significant tumor growth inhibition | – |
